The values that follow come from patent US20240307309A1, “ZWITTERIONIC LIPID NANOPARTICLE COMPOSITIONS, AND METHODS OF USE” (CORNELL UNIVERSITY, priority 2020, published 2024).

The nature of this series: Accelerated blood clearance (ABC) effect, hEPO serum PK after multiple LNP injections (ELISA). Type of series: in vivo, C57BL/6J mice. The following applies: PCB-LNP containing the lipid; intravenous, 5 μg mRNA; third injection; compared to MC3 formulations. On the procedure:
Accelerated blood clearance (ABC) effect has been reported in cases where LNPs were injected multiple times with rapid clearance of LNPs observed in the subsequent injections. […] In this example, PCB-LNP containing ZW-B-CBn from Example 7 were used to study the ABC effect of LNPs. MC3-based PEG-LNP from Example 2 was used as a control.
For in vivo pharmacokinetic (PK) study, male C57BL/6J mice aged 3-4 weeks in groups of three were administered intravenously with mRNA-LNP at a dosage of 5 μg of mRNA. Two different injection cohorts were performed. (FIG. 15a) In cohort 1, only one dose of hEPO-mRNA (human erythropoietin mRNA) was given. In cohort 2, Fluc-mRNA ([…]) was dosed for the first two injections, and hEPO-mRNA for the last injection. (FIG. 15a) Cohort 2 was designed in a way to eliminate anti-hEPO immune response induced from first two injections, and thereby the PK profile of hEPO in the third injection is mainly indicating the ABC effect due to LNP components. To determine the PK profile of hEPO, mice sera were collected at 6-hour, 24-hour post-injection, and analyzed using ELISA (DuoSet, hEPO ELISA kit, R&D).

Turning to `CCCCCCCCCOC(=O)CCCCCCCN(CCCCCCCC(=O)OC(CCCCCCCC)CCCCCCCCC)CC(=O)O` (centres unmarked) [ZW-B-CB1, N-(8-(nonyloxy)-8-oxooctyl)-N-(8-(octadecan-9-yloxy)-8-oxooctyl)glycine], the “ABC effect (hEPO serum concentration, injection cohort 2 versus cohort 1)” value is recorded as “less ABC effect”. Next, `CCCCCCCCCOC(=O)CCCCCCCN(CCCCCCCC(=O)OC(CCCCCCCC)CCCCCCCCC)CCC(=O)O` (centres unmarked) [ZW-B-CB2, 3-((8-(nonyloxy)-8-oxooctyl)(8-(octadecan-9-yloxy)-8-oxooctyl)amino)propanoic acid]: “less ABC effect”.
